# According to patent US10863748B2, “Antibacterial products and processes for preparing antibacterial products from maple syrup” (priority 2016, dated 2020):
# Test system: three bacteria and one yeast
# Assay: Antimicrobial effect of melamine per se
# Format: cell-based
smiles,measurement,value
"Nc1nc(N)nc(N)n1 [melamine, 2,4,6-triamino-1,3,5-triazine]",antimicrobial effect,did not exhibit any antimicrobial effect
